Source: US4876282A, “1-Phenylalkylamines as selective serotonin uptake inhibitors” (Eli Lilly and Company, priority 1987, dated 1989)
Structures can show the parent of a compound that is named as a salt.

Test system: 5HT uptake
Assay: Inhibition of 5HT uptake in vitro (synaptosomal uptake of 3H-serotonin, rat cerebral cortex)
Format: biochemical, Sprague-Dawley rat
Conditions: rat cortical synaptosomes, 37° C., 5 min, 50 nM 3H-5HT; tested as oxalate salt; read-out: IC50 5HT (concentration needed to inhibit 50% of serotonin uptake)
Protocol: This general procedure is set forth by Wong et al., in Drug Development Research 6:397-403 (1985).
Male Sprague-Dawley rats (110-150 g) from Harlan Industries (Cumberland, Ind.) were fed Purina Chow ad libitum for at least 3 days before being used in the studies. Rats were killed by decapitation. Whole brains were removed and dissected. Cerebral cortex was homogenized in 9 volumes of a medium containing 0.32 M sucrose and 10 mM glucose. Crude synaptosomal preparations were isolated after differential centrifugation at 1,000 g for 10 min. and 17,000 g for 28 min. The final pellets were suspended in the same medium and kept in ice until use within the same day.
Synaptosomal uptake of ^3 H-serotonin(^3 H-5-hydroxytryptamine, ^3 H-5HT) was determined as follows. Cortical synaptosomes (equivalent to 1 mg of protein) were incubated at 37° C. for 5 min in 1 ml of Krebsbicarbonate medium containing also 10 mM glucose, 0.1 mM iproniazid, 1 mM ascorbic acid, 0.17 mM EDTA and 50 nM ^3 H-5HT. The reaction mixture was immediately diluted with 2 ml of ice-chilled Krebs-bicarbonatebuffer and filtered under vacuum with a cell harvester (Brandel, Gaithersburg, Md). Filters were rinsed twice with approximately 5 ml of ice-chilled 0.9% saline and were transferred to a counting vial containing 10 ml of scintillation fluid (PCS, Amersham, Arlington Heights, Il). Radioactivity was measured by a liquid scintillation spectrophotometer. Accumulation of ^3 H-5HT at 4° C. represented the background and was subtracted from all samples.
The numbers in parentheses represent percent inhibition at 1000 nM.

SMILES | IC50 [nM]
NC(CCCc1cccc2ccccc12)c1ccccc1 (stereo not shown) [Example 1, 1-Phenyl-4-(1-napthalenyl)butylaminium oxalate] | 240
CN(C)C(CCCc1cccc2ccccc12)c1ccccc1 (stereo not shown) [Example 2, N,N-Dimethyl-1-phenyl-4-(1-naphthalenyl)butylaminium oxalate] | 30
CNC(CCCc1cccc2ccccc12)c1ccccc1 (stereo not shown) [Example 3, N-Methyl-1-phenyl-4-(1-naphthalenyl)butyl-aminium oxalate] | 70
CN(C)C(CCc1cccc2ccccc12)c1ccccc1 (stereo not shown) [Example 4, N,N-Dimethyl-1-phenyl-3-(1-naphthalenyl)propylaminium oxalate] | 240
